Assay [1] deals with N-terminal GST tagged recombinant human RET cytoplasmic domain (aa 658-end), wild type RET kinase (Homo sapiens (Human), UniProt P07949). In words: RET Enzyme Assay (HTRF KinEASE-TK), wild type RET. In kind it is biochemical. To be noted: wild type RET, 1 mM ATP. (In TR-FRET formats the signal depends on donor and acceptor labels being close together.)
In assay [2] the target is Kif5b-RET fusion protein in HEK-293 cells (Homo sapiens, UniProt P07949). In words: cell-based.
In assay [3] the target is human KDR protein in HEK-293 cells (Homo sapiens (Human), UniProt P35968). In words: KDR Cell Assay (phospho-KDR in HEK-293 cells expressing inducible KDR). In kind it is cell-based. The settings on record: pKDR Cell HEK 10% FBS IC50, HEK-293 cells expressing inducible KDR, VEGF stimulated. In short, it runs like this: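 HEK-293 cells with inducible human KDR were treated with compound for 1 h in DMEM (0.25% DMSO final), then lysed. Phospho-KDR was quantified by Meso Scale immunoassay, expressed as percent of control, and IC50 taken where a 4-parameter logistic fit crossed 50 POC.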

The mark [4] stands for this setting: HEK-293 cells expressing Kif5b-RET, phospho-RET(Tyr1062), read-out: KIF5B-RET pTYR1062 Cell IC50.
Where [5] appears, read: HEK-293 cells expressing Kif5b-RET, read-out: KIF5B-RET pTYR1062 Cell IC50.

Structures can show the parent of a compound that is named as a salt. Where two headings read alike, the source gives them in different places.

Chain of human KDR protein in HEK-293 cells (P35968 20-1356): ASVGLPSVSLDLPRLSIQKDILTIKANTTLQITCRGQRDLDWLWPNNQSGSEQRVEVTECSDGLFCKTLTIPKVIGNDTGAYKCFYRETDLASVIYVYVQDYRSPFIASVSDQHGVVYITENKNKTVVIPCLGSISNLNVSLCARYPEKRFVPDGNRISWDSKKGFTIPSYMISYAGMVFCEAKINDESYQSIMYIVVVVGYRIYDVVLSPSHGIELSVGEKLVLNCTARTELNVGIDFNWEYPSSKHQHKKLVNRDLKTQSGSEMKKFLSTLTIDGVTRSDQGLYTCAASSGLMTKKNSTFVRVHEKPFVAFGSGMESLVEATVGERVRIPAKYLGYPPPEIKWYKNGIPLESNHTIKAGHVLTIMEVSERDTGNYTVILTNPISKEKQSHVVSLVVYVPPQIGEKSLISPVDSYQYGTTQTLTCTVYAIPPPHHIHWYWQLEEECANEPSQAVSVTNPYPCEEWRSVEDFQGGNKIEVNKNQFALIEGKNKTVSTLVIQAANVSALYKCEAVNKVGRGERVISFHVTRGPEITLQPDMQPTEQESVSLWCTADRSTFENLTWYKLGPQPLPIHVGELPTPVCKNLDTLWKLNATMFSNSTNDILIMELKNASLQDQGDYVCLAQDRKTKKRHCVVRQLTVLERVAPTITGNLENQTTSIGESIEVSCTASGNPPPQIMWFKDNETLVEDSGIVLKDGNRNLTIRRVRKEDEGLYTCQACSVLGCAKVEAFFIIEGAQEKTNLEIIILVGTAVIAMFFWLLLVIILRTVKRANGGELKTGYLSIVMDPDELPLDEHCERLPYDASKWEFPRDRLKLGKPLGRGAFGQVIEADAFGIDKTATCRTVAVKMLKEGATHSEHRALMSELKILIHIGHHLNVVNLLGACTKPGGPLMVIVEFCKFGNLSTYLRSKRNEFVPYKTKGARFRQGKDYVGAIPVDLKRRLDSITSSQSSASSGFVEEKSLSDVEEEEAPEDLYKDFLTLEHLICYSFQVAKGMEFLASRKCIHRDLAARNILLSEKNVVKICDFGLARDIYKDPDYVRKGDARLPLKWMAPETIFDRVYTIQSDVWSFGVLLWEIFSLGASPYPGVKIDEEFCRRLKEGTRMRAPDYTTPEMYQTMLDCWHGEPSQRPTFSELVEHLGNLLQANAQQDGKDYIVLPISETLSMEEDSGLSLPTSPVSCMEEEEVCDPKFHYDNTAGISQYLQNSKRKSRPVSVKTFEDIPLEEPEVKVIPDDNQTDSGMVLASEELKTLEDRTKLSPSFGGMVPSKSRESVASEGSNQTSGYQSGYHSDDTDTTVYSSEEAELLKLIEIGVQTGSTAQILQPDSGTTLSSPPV
Chain of N-terminal GST tagged recombinant human RET cytoplasmic domain (aa 658-end), wild type RET kinase (P07949 658-1114): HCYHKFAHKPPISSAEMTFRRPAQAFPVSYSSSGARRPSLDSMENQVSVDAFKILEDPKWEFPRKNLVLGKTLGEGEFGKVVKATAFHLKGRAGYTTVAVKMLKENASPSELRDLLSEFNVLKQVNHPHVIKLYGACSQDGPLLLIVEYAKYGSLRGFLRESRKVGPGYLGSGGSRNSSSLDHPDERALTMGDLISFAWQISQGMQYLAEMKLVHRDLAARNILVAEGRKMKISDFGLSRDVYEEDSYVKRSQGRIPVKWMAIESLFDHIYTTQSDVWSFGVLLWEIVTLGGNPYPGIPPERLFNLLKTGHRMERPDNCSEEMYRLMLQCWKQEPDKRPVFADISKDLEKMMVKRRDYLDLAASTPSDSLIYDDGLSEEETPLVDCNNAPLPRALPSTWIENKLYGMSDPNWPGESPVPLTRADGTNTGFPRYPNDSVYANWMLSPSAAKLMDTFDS
Chain of Kif5b-RET fusion protein in HEK-293 cells (P07949 29-1114 limits assumed): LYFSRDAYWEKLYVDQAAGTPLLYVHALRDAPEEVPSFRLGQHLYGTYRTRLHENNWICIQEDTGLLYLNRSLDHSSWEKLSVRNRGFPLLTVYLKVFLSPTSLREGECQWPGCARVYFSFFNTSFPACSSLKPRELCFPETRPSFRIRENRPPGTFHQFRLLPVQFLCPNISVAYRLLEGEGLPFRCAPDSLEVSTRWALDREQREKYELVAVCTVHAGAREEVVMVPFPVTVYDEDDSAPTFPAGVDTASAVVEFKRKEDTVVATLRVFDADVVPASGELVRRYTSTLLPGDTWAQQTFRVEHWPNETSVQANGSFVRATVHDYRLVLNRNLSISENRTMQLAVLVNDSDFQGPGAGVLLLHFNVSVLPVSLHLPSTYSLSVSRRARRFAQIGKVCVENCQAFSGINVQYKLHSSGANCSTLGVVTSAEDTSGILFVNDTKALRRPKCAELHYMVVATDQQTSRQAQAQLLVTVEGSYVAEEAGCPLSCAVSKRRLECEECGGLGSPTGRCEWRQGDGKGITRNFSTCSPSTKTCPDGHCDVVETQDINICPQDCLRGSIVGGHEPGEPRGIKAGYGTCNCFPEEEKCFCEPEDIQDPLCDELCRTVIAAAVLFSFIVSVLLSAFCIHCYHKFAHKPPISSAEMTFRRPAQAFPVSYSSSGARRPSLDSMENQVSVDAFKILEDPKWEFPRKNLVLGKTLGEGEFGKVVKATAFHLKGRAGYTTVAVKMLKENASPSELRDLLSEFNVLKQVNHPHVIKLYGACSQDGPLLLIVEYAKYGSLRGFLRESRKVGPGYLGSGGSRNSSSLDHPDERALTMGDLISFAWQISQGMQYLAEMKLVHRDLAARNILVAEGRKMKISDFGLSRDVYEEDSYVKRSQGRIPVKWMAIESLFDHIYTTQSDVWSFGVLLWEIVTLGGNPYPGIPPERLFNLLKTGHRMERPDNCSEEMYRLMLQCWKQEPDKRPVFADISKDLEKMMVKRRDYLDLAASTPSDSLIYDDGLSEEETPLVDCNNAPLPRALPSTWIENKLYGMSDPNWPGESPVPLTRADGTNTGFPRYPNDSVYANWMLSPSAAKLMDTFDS

The term IC50 denotes the concentration at which inhibition is half-maximal. For the compound `CC(C)N(CCO)C(=O)C1CCN(c2ccc(-c3cc(-c4cnn(C)c4)cn4ncc(C#N)c34)cn2)CC1` [Example 561, 1-(5-(3-cyano-6-(1-methyl-1H-pyrazol-4-yl)pyrazolo[1,5-a]pyridin-4-yl)pyridin-2-yl)-N-(2-hydroxyethyl)-N-isopropylpiperidine-4-carboxamide 2,2,2-trifluoroacetate], the IC50 in assay [1] came to 23.8 nM; in assay [2] it was 37.5 nM; in assay [3] it was 1730 nM.
Regarding `Cn1cc(-c2cc(-c3ccc(N4CCC(C)(NC(=O)OC(C)(C)C)CC4)nc3)c3c(C#N)cnn3c2)cn1` [Example 201, tert-butyl (1-(5-(3-cyano-6-(1-methyl-1H-pyrazol-4-yl)pyrazolo[1,5-a]pyridin-4-yl)pyridin-2-yl)-4-methylpiperidin-4-yl)carbamate], the IC50 in assay [1] is 10.7 nM; in assay [2] (setting [4]) it was 7.1 nM; in assay [3] (10% FBS), 1150 nM.
With `COCCNC(=O)N1CCN(c2ccc(-c3cc(-c4cnn(C)c4)cn4ncc(C#N)c34)cn2)CC1` [Example 135, 4-(5-(3-cyano-6-(1-methyl-1H-pyrazol-4-yl)pyrazolo[1,5-a]pyridin-4-yl)pyridin-2-yl)-N-(2-methoxyethyl)piperazine-1-carboxamide], the IC50 in assay [1] came out at 12.8 nM; in assay [2] (setting [4]), 35.4 nM; in assay [3] (10% FBS), 1030 nM.
On to `Cc1nn(C(C)C)cc1-c1cc(-c2ccc(N3CCN(Cc4ccccc4)CC3)nc2)c2c(C#N)cnn2c1` [Example 614, 4-(6-(4-benzylpiperazin-1-yl)pyridin-3-yl)-6-(1-isopropyl-3-methyl-1H-pyrazol-4-yl)pyrazolo[1,5-a]pyridine-3-carbonitrile], for which the IC50 is 22.2 nM in assay [1], 17 nM in assay [2] and 2300 nM in assay [3].
For the compound `CO[C@H](C)CN1CCN(c2ccc(-c3cc(-c4cnn(C)c4)cn4ncc(C#N)c34)cn2)CC1` [Example 412, (R)-4-(6-(4-(2-methoxypropyl)piperazin-1-yl)pyridin-3-yl)-6-(1-methyl-1H-pyrazol-4-yl)pyrazolo[1,5-a]pyridine-3-carbonitrile], the IC50 in assay [1] was 21.6 nM; in assay [2] (setting [5]) it was 18.2 nM; in assay [3], 2130 nM.
Turning to `Cn1cc(-c2cc(-c3ccc(N4CCN(C(=O)NC(C)(C)C)CC4)nc3)c3c(C#N)cnn3c2)cn1` [Example 128, N-(tert-butyl)-4-(5-(3-cyano-6-(1-methyl-1H-pyrazol-4-yl)pyrazolo[1,5-a]pyridin-4-yl)pyridin-2-yl)piperazine-1-carboxamide], the IC50 turned out to be 11.6 nM in assay [1], 11.1 nM in assay [2] (setting [4]) and 555 nM in assay [3] (10% FBS).
Regarding `Cn1cc(-c2cc(-c3ccc(N4CCC(N)CC4)nc3)c3c(C#N)cnn3c2)cn1` [Example 177, 4-(6-(4-aminopiperidin-1-yl)pyridin-3-yl)-6-(1-methyl-1H-pyrazol-4-yl)pyrazolo[1,5-a]pyridine-3-carbonitrile dihydrochloride], the IC50 in assay [1] turned out to be 47 nM; in assay [2] (read-out: KIF5B-RET pTYR1062 Cell IC50) it was 69.9 nM; in assay [3] (10% FBS), 1180 nM.
With `C[C@H](CO)Cn1cc(-c2cc(-c3ccc(N4CCN(Cc5ccccc5)CC4)nc3)c3c(C#N)cnn3c2)cn1` [Example 593, (S)-4-(6-(4-benzylpiperazin-1-yl)pyridine-3-yl)-6-(1-(3-hydroxy-2-methylpropyl)-1H-pyrazol-4-yl)pyrazolo[1,5-a]pyridine-3-carbonitrile], the IC50 is 13.3 nM in assay [1], 12.4 nM in assay [2] (setting [5]) and 154 nM in assay [3].
Turning to `CN(C)C(=O)NC1CCN(c2ccc(-c3cc(-c4cnn(C)c4)cn4ncc(C#N)c34)cn2)CC1` [Example 186, 3-(1-(5-(3-cyano-6-(1-methyl-1H-pyrazol-4-yl)pyrazolo[1,5-a]pyridin-4-yl)pyridin-2-yl)piperidin-4-yl)-1,1-dimethylurea], the IC50 in assay [1] came out at 14.3 nM; in assay [2] (setting [4]) it was 22.5 nM; in assay [3] (10% FBS) it was 451 nM.
The like results for `CC(C)OCCNC(=O)C1CCN(c2ccc(-c3cc(-c4cnn(C)c4)cn4ncc(C#N)c34)cn2)CC1` [Example 234, 1-(5-(3-cyano-6-(1-methyl-1H-pyrazol-4-yl)pyrazolo[1,5-a]pyridin-4-yl)pyridin-2-yl)-N-(2-isopropoxyethyl) piperidine-4-carboxamide] were, in that order, 25.6 nM, 31.9 nM and 1210 nM.
The corresponding values for `Cn1cc(-c2cc(-c3ccc(N4CCC(NC(=O)C(C)(C)O)CC4)nc3)c3c(C#N)cnn3c2)cn1` [Example 179, N-(1-(5-(3-cyano-6-(1-methyl-1H-pyrazol-4-yl)pyrazolo[1,5-a]pyridin-4-yl)pyridin-2-yl)piperidin-4-yl)-2-hydroxy-2-methylpropanamide] are 18 nM, 30.8 nM and 547 nM.
The like results for `C[C@@H](O)CC(=O)N1CCN(c2ccc(-c3cc(-c4cnn(C)c4)cn4ncc(C#N)c34)cn2)CC1` [Example 55, (R)-4-(6-(4-(3-hydroxybutanoyl)piperazin-1-yl)pyridin-3-yl)-6-(1-methyl-1H-pyrazol-4-yl)pyrazolo[1,5-a]pyridine-3-carbonitrile] were, in that order, 10.4 nM, 54.9 nM and 923 nM.
Consider `Cc1cccc(CN2CCN(c3ccc(-c4cc(-c5cnn(C)c5)cn5ncc(C#N)c45)cn3)CC2)n1` [Example 433, 6-(1-methyl-1H-pyrazol-4-yl)-4-(6-(4-((6-methylpyridin-2-yl)methyl)piperazin-l-yl)pyridine-3-yl)pyrazolo[1,5-a]pyridine-3-carbonitrile], for which the IC50 stood at 9.7 nM in assay [1], 6 nM in assay [2] and 1080 nM in assay [3].
As to `CC(C)CC(=O)N1CCN(c2ccc(-c3cc(-c4cnn(C)c4)cn4ncc(C#N)c34)cn2)CC1` [Example 75, 6-(1-methyl-1H-pyrazol-4-yl)-4-(6-(4-(3-methylbutanoyl)piperazin-1-yl)pyridin-3-yl)pyrazolo[1,5-a]pyridine-3-carbonitrile], the IC50 in assay [1] was 6.3 nM; in assay [2] (setting [4]) it was 7 nM; in assay [3] (10% FBS), 392 nM.
The like results for `CC(C)C(O)CN1CCN(c2ccc(-c3cc(-c4cnn(C)c4)cn4ncc(C#N)c34)cn2)CC1` (stereo not drawn) [Example 160, 4-(6-(4-(2-hydroxy-3-methylbutyl)piperazin-1-yl)pyridin-3-yl)-6-(1-methyl-1H-pyrazol-4-yl)pyrazolo[1,5-a]pyridine-3-carbonitrile] were, in that order, 13.6 nM, 11 nM and 192 nM.
The corresponding values for `CC(C)[C@H](O)C(=O)N1CCN(c2ccc(-c3cc(-c4cnn(C)c4)cn4ncc(C#N)c34)cn2)CC1` [Example 54, (S)-4-(6-(4-(2-hydroxy-3-methylbutanoyl)piperazin-1-yl)pyridin-3-yl)-6-(1-methyl-1H-pyrazol-4-yl)pyrazolo[1,5-a]pyridine-3-carbonitrile] are 12.4 nM, 66.6 nM and 1480 nM.
With `C[C@H](O)[C@@H](C)N1CCN(c2ccc(-c3cc(-c4cnn(C)c4)cn4ncc(C#N)c34)cn2)CC1` (racemic) [Example 165, rac-4-(6-(4-((2R*,3S*)-3-hydroxybutan-2-yl)piperazin-1-yl)pyridin-3-yl)-6-(1-methyl-1H-pyrazol-4-yl)pyrazolo[1,5-a]pyridine-3-cartonitrile], the IC50 in assay [1] came out at 24.8 nM; in assay [2] it was 28.9 nM; in assay [3] (10% FBS), 2020 nM.
For `CCc1nn(C)cc1-c1cc(-c2ccc(N3CCN(Cc4ccccc4)CC3)nc2)c2c(C#N)cnn2c1` [Example 610, 4-(6-(4-benzylpiperazin-1-yl)pyridin-3-yl)-6-(3-ethyl-1-methyl-1H-pyrazol-4-yl)pyrazolo[1,5-a]pyridine-3-carbonitrile], the IC50 is 48.1 nM in assay [1], 109 nM in assay [2] (setting [5]) and 4440 nM in assay [3].
The corresponding values for `CCC1(C(=O)NC(C)C)CCN(c2ccc(-c3cc(-c4cn(C)nc4C)cn4ncc(C#N)c34)cn2)CC1` [Example 599, 1-(5-(3-cyano-6-(1,3-dimethyl-1H-pyrazol-4-yl)pyrazolo[1,5-a]pyridin-4-yl)pyridin-2-yl)-4-ethyl-N-isopropylpiperidine-4-carboxamide] are 27.6 nM, 16.5 nM and 4860 nM.
Take `Cn1cc(-c2cc(-c3ccc(N4CCC(C)(C(=O)NCCC(F)(F)F)CC4)nc3)c3c(C#N)cnn3c2)cn1` [Example 250, 1-(5-(3-cyano-6-(1-methyl-1H-pyrazol-4-yl)pyrazolo[1,5-a]pyridin-4-yl)pyridin-2-yl)-4-methyl-N-(3,3,3-trifluoropropyl)piperidine-4-carboxamide]: the IC50 was determined as 7 nM in assay [1], 6.1 nM in assay [2] (setting [4]) and 468 nM in assay [3] (10% FBS).
The corresponding values for `CC(C)NC(=O)C1(C)CCN(c2ccc(-c3cc(-c4cnn(C)c4)cn4ncc(C#N)c34)cn2)CC1` [Example 251, 1-(5-(3-cyano-6-(1-methyl-1H-pyrazol-4-yl)pyrazolo[1,5-a]pyridin-4-yl)pyridin-2-yl)-N-isopropyl-4-methylpiperidine-4-carboxamide] are 7.8 nM, 5.6 nM and 495 nM.

These data come from patent US10023570B2 (Array BioPharma, Inc., priority 2015, dated 2018).
